# Source: paper PMC8330957 (Nature genetics, 2020)
# “Also recorded” adds a separate entry of the source.
# How the values were obtained:
# CUTLL1 cells = test: RT-qPCR of H3K27me3-marked genes after UNC1999 treatment, CUTLL1; format: cell-based, human; details: 5 μM UNC1999, three days, three independent experiments
# [1] = test system: 3×Flag-BAHCC1 at TSS of target genes, JURKAT cells; test: Flag ChIP-qPCR of BAHCC1 binding to target genes; format: cell-based, human; details: UNC1999 versus DMSO, three independent experiments
# JURKAT cells [2] = test: RNA-seq of JURKAT cells treated with UNC1999; format: cell-based, human; details: three-day treatment with 5 μM UNC1999
# JURKAT cells [3] = test: RT-qPCR of H3K27me3-marked genes after UNC1999 treatment, JURKAT; format: cell-based, human; details: 5 μM UNC1999, three days, three independent experiments
# [4] = test system: BAHCC1 (chromatin-bound), 293 cells; test: Cell fractionation and immunoblotting of chromatin-bound BAHCC1; format: cell-based; details: immunoblotting after cell fractionation, UNC1999 versus DMSO
smiles,measurement,setting,value
CCCc1cc(C)[nH]c(=O)c1CNC(=O)c1cc(-c2ccc(N3CCN(C(C)C)CC3)nc2)cc2c1cnn2C(C)C [UNC1999],expression of examined H3K27me3-marked genes,CUTLL1 cells,re-activation
same,BAHCC1 binding to its target genes,[1],significantly reduced
same,overlap of UNC1999-derepressed DEGs with those caused by BAHCC1 loss,JURKAT cells [2],significant overlapping; also recorded: significantly overlapped
same,expression of examined H3K27me3-marked genes,JURKAT cells [3],re-activation
same,overall BAHCC1 binding to chromatin,[4],impaired
